Laboratory results reported in US7790188B2, “Antifungal protein and usage thereof” (Food Industry Research and Development Institute, priority 2006, dated 2010).

Experiments:
[1] = test system: P. variotii BCRC 33174; test: Antifungal activity assay (pathogen antagonistic dosage assay, paper discs on PDA plate); assay type: cell-based, Paecilomyces variotii; details: 28° C.
Procedure: (§1) The fungal strains for testing the antifungal activities of Monascus strains or isolated and purified antifungal protein, MAFP1, are selected from Helminthosporium panici BCRC 35004 and Paecilomyces variotii BCRC 33174. The fungal strains were inoculated on PDA (Potato Dextrose Agar, Difico Co.) culture plate and cultured at 25° C. for 7 to 14 days. Pathogen antagonistic dosage assays were conducted to confirm the antifungal activity of the purified MAFP1 protein. Fungal blocks of pathogenic fungi (P. variotii BCRC 33174 and H. panici BCRC 35004) were place in the center of PDA plates. 6 mm paper discs with different concentrations of MAFP1 solutions (containing 0 to 0.8 μg of purified MAFP1 protein) were placed surround the fungal block of pathogenic fungus. The plates were cultured at 28° C. and the growth inhibitions of the pathogenic fungi were observed.

[2] = test system: H. panici BCRC 35004; test: as above; assay type: cell-based, Helminthosporium panici; details: 28° C.
Procedure: as §1

[3] = discs with 0 to 0.8 μg MAFP1, PDA plate

MAFP1: Antifungal protein of about 7 kDa purified from M. pilosus BCRC 38093 culture broth; mature form, SEQ ID NO: 3 (LSKYGGECSLQHNTCTYLKGGKNQVVHCGSAANQKCKSDRHHCEYDEHHKTVNCQTPV; listed as Monascus pilosus)
growth inhibition of P. variotii ([1]; 0.2 μg of purified MAFP1 protein on 6 mm paper disc, PDA plate): can significantly inhibit the growth
dependence of growth inhibition of pathogenic fungus on MAFP1 concentration [1, 3]: the higher the MAFP1 concentration, the stronger the inhibitory activity
growth inhibition of H. panici ([2]; 0.4 μg of purified MAFP1 protein on 6 mm paper disc, PDA plate): can significantly inhibit the growth
dependence of growth inhibition of pathogenic fungus on MAFP1 concentration [2, 3]: the higher the MAFP1 concentration, the stronger the inhibitory activity
